The series concerns the target SNHG14. The conditions noted are these: ASO, Human Neuronal Cell.

After the bases stand the sugars from the 5' end (letter, count) and the backbone: PS all phosphorothioate, else s phosphorothioate and o phosphodiester by linkage. Methylation of C is not given here. l = locked nucleic acid (LNA); d = 2'-deoxy (DNA)

On to TGTACTTACACATCTA (sugars l3 d10 l3, PS), for which the target mRNA inhibition is 42% (0.2 µM) and 34% (1 µM).

In turn, “CAGCTTTTAACCAGAGTGGC (sugars l1 d17 l2, PS)” displayed a target mRNA inhibition (7.5 µM) of 40%.

The sequence “GATCATTCTCAACAATTA (sugars llddllddddddllddll, PS)” returned a target mRNA inhibition (7.5 µM) of 49%.

Turning to ATGCTCACACTAATTA (sugars l4 d10 l2, PS), the target mRNA inhibition runs as follows: (0.2 µM) 35%; (1 µM) 48%.

For the sequence “TTCTACTATACTTTCCTCT (sugars ldddldddddddddlddll, PS)”, the target mRNA inhibition (7.5 µM) was determined as 57%.

In turn, “AATTTTTTTCTTACTATCTT (sugars llllddldddddddldddll, PS)” displayed a target mRNA inhibition (7.5 µM) of 49%.

For “TTACACTTAATTATACTTCC (sugars ldddldldddddddllddll, PS)”, the target mRNA inhibition (7.5 µM) was determined as 62%.

Turning to “TTCAGCTTTTAACCAGAGTG (sugars l2 d15 l3, PS)”, the target mRNA inhibition (7.5 µM) was 73%.

Regarding CATATTGAACCAATTC (sugars l4 d10 l2, PS), the target mRNA inhibition reads like this: (0.2 µM) 51%; (1 µM) 67%.

“TGAAAATCTCAACTACCAT (sugars l1 d11 l1 d2 l4, PS)” came in with a target mRNA inhibition (7.5 µM) of 24%.

Sequence “TTTTATACCTTTCTTTAACC (sugars l1 d5 l1 d10 l3, PS)” showed a target mRNA inhibition (7.5 µM) of 38%.

Take GCCACAACATCTATTT (sugars l4 d10 l2, PS): the target mRNA inhibition by setting is: (0.2 µM) 37%; (1 µM) 38%.

Regarding “TTATAGCCATTCTATCT (sugars lddldddddddldllll, PS)”, for the setting “7.5 µM”, the target mRNA inhibition is 22%.

As to “GATCATTCTCAACAATTAA (sugars lllllddddddddldldll, PS)”, the target mRNA inhibition (7.5 µM) was determined as 5%.

Where the note is “7.5 µM”, “TCCATTTATTTCCATTTAT (sugars ldldlldddddddldddll, PS)” registered a target mRNA inhibition of 55%.

For the sequence CCATTCAATGATCACT (sugars l2 d10 l4, PS), the target mRNA inhibition runs as follows: (0.2 µM) 52%; (1 µM) 45%.

The sequence “GTTCTACTATACTTTCCTC (sugars lddddddddddddldldll, PS)” returned a target mRNA inhibition (7.5 µM) of 56%.

“TTTATCAATATCTTCTCA (sugars lllldldddddddlddll, PS)” came in with a target mRNA inhibition (7.5 µM) of 62%.

“TTTATCAATATCTTCTCACT (sugars ldddddddddddddldldll, PS)”: the target mRNA inhibition (7.5 µM) worked out at 53%.

Sequence “TGTTTATACCCTTTCCAA (sugars lddlddddddddlddlll, PS)” returned a target mRNA inhibition (7.5 µM) of 61%.

“CAGCATTCAACCCTAAT (sugars l3 d12 l2, PS)”: the target mRNA inhibition (0.2 µM) worked out at 40% and the target mRNA inhibition (1 µM) turned out to be 54%.

As for “TTATAGCCATTCTATCT (sugars ldldddddddddldlll, PS)”, the target mRNA inhibition (7.5 µM) was 53%.

Take AATCTCAACTACCATT (sugars l4 d10 l2, PS): the target mRNA inhibition by setting is: (0.2 µM) 60%; (1 µM) 66%.

“AAAGATCATTCTCAACAA (sugars ldddllddddddlldlll, PS)” yielded a target mRNA inhibition (7.5 µM) of 33%.

In turn, “TAAAATTATTTATACACCA (sugars l5 d8 l2 d1 l3, PS)” gave a target mRNA inhibition (7.5 µM) of 65%.

“TTTTATACCTTTCTTTAACC (sugars llddddldddddddldddll, PS)” yielded a target mRNA inhibition (7.5 µM) of 51%.

Under “7.5 µM”, “ATTGATTCAATTCCCTT (sugars llddlddddddddldll, PS)” displayed a target mRNA inhibition of 64%.

Take CATTATTAACCACCTT (sugars l2 d10 l4, PS): the target mRNA inhibition (0.2 µM) was determined as 54% and the target mRNA inhibition (1 µM) came out at 59%.

Regarding “TTACACTTAATTATACTTCC (sugars lddlldldddddddddddll, PS)”, the target mRNA inhibition (7.5 µM) turned out to be 68%.

Sequence “TTATAGCCATTCTATCT (sugars l2 d10 l2 d1 l2, PS)” showed a target mRNA inhibition (7.5 µM) of 56%.

For “ATTTACACTTAATTATACTT (sugars ldllddlddddddlllldll, PS)”, the target mRNA inhibition (7.5 µM) was found to be 12%.

For “ATTTTTTTCTTACTATCTTC (sugars llddldldddddddldddll, PS)”, under “7.5 µM”, the target mRNA inhibition turned out to be 49%.

These data come from the OligoGym collection.
